Data on six molecules can be found in patent US20250152731A1, “ANTI-TROP2 ANTIBODY COMBINATION THERAPIES AND METHODS OF USE THEREOF” (priority 2021, published 2025).

The test system of one assay is BCX-010 cells. Briefly: Colony formation assay, BCX-010 control and Zeb1 knockdown. Conditions: BCX-010 control and Zeb1 knockdown cells; decitabine 5 nM, sacituzumab govitecan 20 nM, 14 days. It is filed as cell-based, human. As for the experimental part: FIGS. 7A-7B show a colony assay of BCX-010 cells transfected with control shRNA (FIG. 7A) or Zeb1 shRNA (FIG. 7B) after treatment with vehicle, sacituzumab govitecan (20 nM), and/or decitabine (5 nM) for 14 days. After 14 days, cell colonies formed on the plates, were fixed with 10% formalin, and stained with 0.05% crystal violet. […] Annexin V positive apoptotic cells were measured by flow cytometry. Percentage of apoptotic cells over total cell populations was calculated.
In order to determine the effect of decitabine and/or Zeb1 knockdown treatment on sacituzumab govitecan activity, colony formation assays were performed in BCX-010 breast cancer cells. BCX-010 cells (control and Zeb1 knockdown) were seeded into 6-well plates at 1000 cells/well. Cells were treated with decitabine (5 nM) and/or sacituzumab govitecan ([…]) for 14 days. Culture medium with replaced with culture medium containing fresh drugs twice. After 14 days, cell colonies form on the plates were fixed with 10% formalin and stained with 0.05% crystal violet. Total colony area and colony number were quantified using ImageJ software.

A further assay has as its system Sum-159 cells. Kind of assay: Colony formation assay, Sum-159. It is filed as cell-based, human. The note with it: sacituzumab govitecan 200 nM, decitabine 200 nM. As for the experimental part:
FIGS. 6A-6E show a colony assay of BCX-010 (FIGS. 6A-6B), BCX-011 (FIG. 6C-6D), and Sum-159 cells ([…]) after treatment with vehicle, sacituzumab govitecan (200 nM), and/or decitabine (200 nM) for 10 days. FIGS. 6A-6C show agar plates after 10 days of colony formation.
In order to determine the effect of decitabine treatment on sacituzumab govitecan activity, colony formation assays were performed in BCX-010 cells (FIGS. 6A-6B), BCX-011 cells (FIG. 6C-6D), and Sum-159 breast cancer cells (FIG. 6E-6F).
Cells were seeded in 6-well plates at a density of 1000 cells per well in triplicates for each treatment group. Next day, cells were treated with single drugs, or combination at the different concentrations. Culture medium was changed with fresh drugs twice a week. Cells were cultured for 3 weeks. Cell colonies were then fixed in 10% formalin and stained with 0.05% crystal violet in 25% methanol. The stained colonies were imaged and total colony area was quantitated using NIH ImageJ v.1.48 software. Effect-based Combination Index (CI) was calculated by inhibition percentage of single drug and combination treatments using Bliss combination model. CI=((EA+EB)−(EA*EB))/EAB, where EA, EB, and EAB are effects of drug A, B and combination AB inhibition percentage. Here the effect is inhibition percentage of colony formation compared to vehicle controls. […]

The test system of assay [1] is BCX-010CL and BCX-011CL cells. Briefly: Cell survival assay of SG in TROP2-overexpressing cells. It is filed as cell-based, human. Conditions: serial dilutions, 3 days, FIG. 8B. As for the experimental part: TROP2-overexpressing cells and control cells were treated with SG at concentrations in serial dilutions for 3 days. SG IC50 was calculated.
For TROP2 overexpression, breast cancer cells seeded in 6-well plates were transfected with TROP2 expression plasmid pCMV6-entry-TROP2 using Lipofectamine 3000 Kit. Two days after transfection, cells were treated with G-418 for 2-3 passages.
After G-418 selection, immunoblotting was performed to detect TROP2 expression (FIG. 8A). Next, TROP2-overexpressing cells and control cells were treated with SG at concentrations in serial dilutions for 3 days. SG IC50 was calculated (FIG. 8B).

Assay [2] has as its system BCX-010, BCX-011 and Sum-159 cells. Kind of assay: Annexin V flow cytometry apoptosis assay. Format: cell-based, human. Conditions: decitabine 1 μM and/or sacituzumab govitecan 0.1 μM, three days; FIGS. 5A-5D.
Experimental: In order to determine the effect of decitabine and/or Zeb1 knockdown treatment on sacituzumab govitecan activity, apoptosis was measured in breast cancer cell lines. BCX-010 cells (FIG. 5A and FIG. 5B), BCX-011 cells (FIG. 5C) and Sum-159 cells (FIG. 5D) were seeded in 6-cm plates, then treated with decitabine (1 μM) and/or sacituzumab govitecan (0.1 μM) for three days in an apoptosis assay. After the three day treatment, cells were stained with Annexin V. Flow cytometry was performed to sort Annexin V positive cells (apoptotic cells) (FIGS. 5A-5D). Percentage of apoptotic cells was calculated by Annexin V positive cells over total cell populations.
Cells were seeded in 6 cm plates at a density of 3×10^5 cells per well in triplicates for each treatment group. The following day, cells were treated with decitabine and SG at 1 μM and 0.1 μM respectively, or their combination. […] Using Annexin-V-FLUOS Staining Kit (Roche), cells were stained with Annexin V fluorescence and propidium iodide (PI), following manufacturer's protocol. Samples were analyzed by flow cytometry. Percentage of Annexin V positive apoptotic cells were calculated.
In apoptosis assay, cells were treated with decitabine at 1 μM, SG at 0.1 μM, or their combination for 3 days. Annexin V positive apoptotic cells were measured by flow cytometry. Percentage of apoptotic cells over total cell populations was calculated (FIG. 7D).
Assay [3] relates to DNMT1, DNMT3A, and DNMT3B. Kind of assay: Immunoblotting of DNA methyltransferases (DNMTs). Conditions: breast cancer cell lines. It is filed as cell-based, human. As for the experimental part:
(§1) Following treatments, cells were washed with cold PBS and lysed in 1× Laemmli buffer. The protein concentrations in the cell lysates were measured using Pierce BCA protein assay Kit (ThermoFisher). The same amount protein for each sample (20-50 μg/lane) was loaded to SDS-PAGE gel, followed by transferring proteins to a 0.2 μm nitrocellulose membrane (Bio-Rad Laboratories). Membranes were blocked with blocking buffer Blocker Casein in PBS (ThermoFisher) at room temperature for 1 hour, followed by immunoblotting with the primary antibodies in 5% BSA TBST buffer at room temperature overnight. After washing with TBST buffer, the immunoblotting membrane was then probed with the secondary antibodies with fluorescence conjugation. The immunoblots were visualized and the immunoblotting signal intensity quantitated using the Odyssey IR imaging system (Li-Cor Biosciences).

Assay [4] deals with TROP2. Briefly: Immunoblotting of TROP2 protein in breast cancer cell lines. It is filed as cell-based, human. As for the experimental part: as §1
Five cell lines (BCX-011, BCX-010, Sum-159, BCX-010 transfected with control shRNA, and BCX-010 transfected with Zeb1 shRNA) were treated with decitabine (a DNA methyltransferase inhibitor) at 1 μM for 3 days (FIG. 1B). To knockdown Zeb1, BCX-010 cells were transduced with a lentivirus containing Zeb1 shRNA, followed by puromycin selection.
(§2) Breast cancer cell lines BCX-010CL, BCX-011CL, and SUM159 cells were treated with decitabine, azacytidine, panobinostat, vorinostat, tazemetostat at […] respectively for 3 days, followed by immunoblotting for E-cad and TROP2 with β-actin as control (FIG. 1D).
(§3) The treated cells were lysed. The cell lysate samples were loaded onto SDS-PAGE gel for the western blot. Antibodies ab-214488 and cst-3195 were used to detect TROP2 and E-cadherin respectively. β-actin was used as loading control (FIG. 1C).

Assay [5] has as its system TROP2. Briefly: Immunocytochemistry of TROP2 in SUM159 cells. Format: cell-based, human. Conditions: 1 μM for 3 days. On the procedure:
SUM159 cells were treated with decitabine at 1 μM for 3 days. After cell fixation, cell pellet blocks were processed and probed with anti-TROP2 antibody, followed by hematoxylin staining.
After cell fixation, cell pellet blocks were processed and probed with anti-TROP2 antibody, followed by hematoxylin staining (FIG. 2D).
Formalin-fixed paraffin-embedded (FFPE) cell lines/tissue of 4-micron thickness slides were baked at 60° C. for 1 hour. IHC staining was performed using Leica BondRXm autostainer (Leica Biosystems) for further processing. In brief, after deparaffinized by bond dewax solution, epitope retrieval (HIER) was performed with citrate buffer pH6, followed by washing steps. After peroxidase blocking (3% H2O2) for 20 minutes, slides were incubated in TROP2 rabbit monoclonal [EPR20043], catalog #ab214488 with a 1:2000 dilution for 15 minutes at ambient temperature. After transient washing, post-primary and polymer incubation for 8 min, followed by hematoxylin staining and wash steps. Afterwards, the slides were unloaded from autostainer, air dried and cover slipped with mounting media (Cytoseal XYL mounting media).

In a further assay the test system is TROP2 promoter. Briefly: Methylation-specific PCR of TROP2 promoter CpG region. The note with it: BCX-010 cells; decitabine 1 μM; FIG. 3A.
A further assay concerns SLFN11. Briefly: Immunoblotting of SLFN11 in breast cancer cell lines. It is filed as cell-based, human. The note with it: BCX-010CL, HCC-1937, HCC-1143, MDA-MB-157; 1 μM for 3 days; FIG. 10A. As for the experimental part:
as §1

The subject of the next assay is BCX-010CL cells. Kind of assay: Cell survival assay of SN-38 with or without decitabine. Conditions: decitabine co-treatment, 3 days, FIG. 10B. It is filed as cell-based, human.
A further assay deals with TROP2 mRNA. Kind of assay: Quantitative RT-PCR of TROP2 mRNA. Format: cell-based, human. Conditions: decitabine 1 μM, three days; BCX-010 (control or Zeb1 shRNA) and Sum-159 cells.
A further assay deals with E-cadherin. Briefly: Immunoblotting of E-cadherin in breast cancer cell lines. Format: cell-based, human. The note with it: BCX-010CL cells. As for the experimental part:
as §1, §2, §3

Assay [6] relates to BCX-010CL, HCC-1954, HCC-1143, and MDA-MB-157 cells. Briefly: Cell survival assay of Sacituzumab govitecan with or without decitabine. It is filed as cell-based, human. Conditions: HCC-1954, HCC-1143, MDA-MB-157, decitabine co-treatment, 3 days, FIG. 10C.
Experimental: BCX-010CL, HCC-1954, HCC-1143, and MDA-MB-157 cells were treated with Sacituzumab govitecan at serial dilutions, with or without decitabine co-treatment for 3 days. IC50s of individual agents and combination index were calculated.
Finally, BCX-010CL, HCC-1954, HCC-1143, and MDA-MB-157 cells were treated with Sacituzumab govitecan at serial dilutions, with or without decitabine co-treatment for 3 days. IC50s of individual agents and combination index were calculated.
Assay [7] addresses T1, TROP2 (Trophoblast cell surface antigen 2) (human, UniProt P09758 27-323).
T1 construct: whole, on cells; also called TACSTD2; tumor-associated calcium signal transducer 2
T1 sequence (looked up): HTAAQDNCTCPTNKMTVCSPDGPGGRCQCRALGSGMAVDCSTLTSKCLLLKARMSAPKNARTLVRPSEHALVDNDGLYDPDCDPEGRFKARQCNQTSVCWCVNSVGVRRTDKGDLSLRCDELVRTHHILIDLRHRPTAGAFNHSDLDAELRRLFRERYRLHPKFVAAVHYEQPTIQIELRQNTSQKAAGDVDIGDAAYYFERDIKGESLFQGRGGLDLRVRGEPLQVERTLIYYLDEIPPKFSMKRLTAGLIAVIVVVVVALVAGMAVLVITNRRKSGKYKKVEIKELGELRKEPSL
Briefly: immunofluorescence microscopy, SG-Alexa-488 at 2 ug/ml on BCX cells overexpressing TROP2; signal similar to that on MDA-MB-468 cells with high endogenous TROP2.

Assay [8] has as its system TROP2 overexpressing cells. Briefly: Immunofluorescence of ADC binding on cell membrane. It is filed as cell-based, human. Conditions: 2 μg/ml, 2 hours, room temperature; FIG. 12A. As for the experimental part:
ADC drug SG was labeled with alexa fluorescent dye using Alexa Fluo 488 Conjugation Lightening Kit (Abcam, #ab236553), following the manufactory protocol. Final SG-Alexa-488 concentration was 1 μg/μl. To bind ADC to cells, cells were seeded on cover slices in 6-well plates overnight, followed by blocking with 3% BSA/PBS at room temperature for 1 hour. Then cells were incubated with SG-Alexa-488 at 2 μg/ml at room temperature for 2 hours, followed by PBS wash twice. For internalization assay, SG-Alexa-488 was added into the culture medium in the wells at 2 μg/ml for 10 min, 3 hours, and 24 hours. Cells were fixed with 4% paraformaldehyde at room temperature for 15 min, PBS wash twice. The cover slices were mounted onto slide with DAPI counterstaining. Fluorescence on cell surface and in cytoplasm was monitored using Olympus BX51 fluorescent microscope and imaged using Nuance imaging system.

Assay [9] addresses T1, TROP2 (Trophoblast cell surface antigen …). Kind of assay: conclusion drawn from the examples' data (immunofluorescence, cell assays).

Experimental for BCX-010CL cells: BCX-010CL cells were treated with SN-38 at serial dilutions, with or without decitabine co-treatment for 3 days. IC50s of individual agents and combination index were calculated.
BCX-010CL cells were also treated with SN-38 at serial dilutions, with or without decitabine co-treatment for 3 days. IC50s of individual agents and combination index were calculated.
Experimental for TROP2 mRNA: Following treatments, cells were lysed and total RNA was extracted using GeneJet RNA Purification Kit (ThermoFisher) according to manufacturer's manual. cDNA was synthesized from RNA using High-Capacity RNA-to-cDNA Kit (ThermoFisher) following manufacturer's manual. DNA amount in cDNA samples were quantitated using Qubity dsDNA Kit (ThermoFisher). Real time PCR was performed with the same amount DNA from each sample using TaqMan Universal PCR Master Mix Kit (ThermoFisher), under the PCR conditions: 50° C., 2 minutes; 95° C., 10 minutes; [95° C., 15 seconds, 60° C., 1 minutes]×35 cycles. Fold changes of mRNA expression levels were calculated using formula 2^rrCT (rrCT: cycle threshold of treatment group-cycle threshold of control group).
BCX-010 cells (FIG. 2A) and Sum-159 cells (FIG. 2B) were treated decitabine (1 μM), panobinostat (20 nM), or DMSO for three days. Total RNA was extracted from the treated cells using GeneJet RNA kit, followed by reverse transcription using High Capacity RNA-to-cDNA kit. cDNAs were quantitated using Qubit DNA kit. Quantitative real time PCR (qPCR) was performed using Taqman Universal PCR Master Mix kit with a TROP2 probe. Relative TROP2 levels were obtained by normalization with GAPDH. Additionally, BCX-010CL cells were treated with shRNA control or ZEB1 shRNA (FIG. 2C).
Experimental for TROP2 promoter: Genomic DNA was extracted from BCX-010CL and BCX-011CL cells treated decitabine at 1 μM for 3 days, or from ZEB1 knockdown cells, and then subjected bisulfite CT conversion, followed by MSP using methylation specific primers specific to a CpG region in the TROP2 promoter. GAPDH was used as a control.
Following treatments, cells were lysed and genomic DNA (gDNA) was extracted using Genomic DNA Purification Kit (ThermoFisher) according to manufacturer's manual. Bisulfite CT conversion of quantitated gDNA was performed using EZ DNA Methylation Kit (Zymo Research) following manufacturer's manual. MSP of TROP2 promoter CpG region was performed using a methylation forward primer, a methylation reverse primer, an un-methylated forward primer, and an un-methylated reverse primer. PCR condition was set up as following: 94° C., 1 minute; [94° C., 30 seconds, 62° C., 30 seconds, 72° C., 45 seconds]×40 cycles; 72° C., 2 minutes, 4° C. About 200 bp PCR product was separated by 2% agarose gel.

For the molecule sacituzumab govitecan, the figures for the colony formation result in the assay on BCX-010 cells and with Sum-159 cells were “inhibited cell colony formation” and “inhibited cell colony formation in Sum-159 cells”, respectively. Also, the “cell sensitivity to SG (IC50) in TROP2-overexpressing vs control cells” value in assay [1] was “Overexpression of TROP2 sensitizes cells”. Further, the “apoptosis (Annexin V positive cells)” value in assay [2] is “induced cell apoptosis in BCX-010 and Sum-159 cells”.
Consider `CCc1c(C#N)c(SC(C(N)=O)c2ccccc2)nc(N2CCC(N)CC2)c1C#N` (centres unmarked) [GSK-3685032], for which the DNMT1 protein levels entry in [3] is reported as “decreased DNMT1 protein levels”. Further, the “TROP2 expression (DNMT1 specific inhibitor)” value in the assay with TROP2 [4] (breast cancer cell lines) is reported as “did not upregulate TROP2 expression”.
Regarding `Nc1ncn([C@H]2C[C@H](O)[C@@H](CO)O2)c(=O)n1` [decitabine, 5-Aza-2′-deoxycytidine], the “TROP2 expression (immunocytochemistry)” value in the assay with TROP2 [5] is listed as “increases TROP2 expression in SUM159 cells”. Also, the values for the colony formation result with BCX-010 cells and with Sum-159 cells were “inhibited cell colony formation” and “inhibited cell colony formation in Sum-159 cells”, respectively. Moreover, the “TROP2 promoter methylation (MSP)” value with TROP2 promoter is reported as “decreased TROP2 promoter methylation”. Further, the “protein levels of DNMT1, DNMT3A, and DNMT3B” value in [3] (1 μM for 3 days, FIG. 3B) is reported as “decreased protein levels of three DNMT isoforms”. Further, the “SLFN11 expression (immunoblot)” value in the assay on SLFN11 is “increases SLFN11 expression”. The “sensitization of cells to SN-38 (cell survival)” value with BCX-010CL cells is reported as “sensitizes cells to SN-38 in BCX-010CL cells”. The TROP2 protein expression entry with TROP2 [4] (1 μM for 3 days, BCX-011, BCX-010, Sum-159, BCX-010 control shRNA, BCX-010 Zeb1 shRNA, FIG. 1B) is listed as “increased TROP2 protein expression in all 5 cell lines”. Besides, the “TROP2 expression, panel of epigenetic modulators (immunoblot)” value with TROP2 [4] (BCX-010CL, BCX-011CL, SUM159 cells, 3 days, FIG. 1D) is “most effective enhancer of TROP2 expression”. Also, the “TROP2 mRNA expression (qPCR, normalized with GAPDH)” value in the assay on TROP2 mRNA was “increased TROP2 mRNA expression in all cell lines”. Moreover, the E-cadherin expression entry in the assay on E-cadherin is recorded as “increased E-cadherin expression”. Moreover, in [6], the “sensitization of cells to Sacituzumab govitecan (cell survival)” value is listed as “sensitizes cells to Sacituzumab govitecan in breast cancer cell lines”. For the same molecule, the “apoptosis (Annexin V positive cells)” value in assay [2] was “induced cell apoptosis in BCX-010 and Sum-159 cells”.

B1: sacituzumab govitecan-Alexa-488 (antibody, V domains shown)
VH: QVQLQQSGSELKKPGASVKVSCKASGYTFTNYGMNWVKQAPGQGLKWMGWINTYTGEPTYTDDFKGRFAFSLDTSVSTAYLQISSLKADDTAVYFCARGGFGSSYWYFDVWGQGSLVTVSS
VL: DIQLTQSPSSLSASVGDRVSITCKASQDVSIAVAWYQQKPGKAPKLLIYSASYRYTGVPDRFSGSGSGTDFTLTISSLQPEDFAVYYCQQHYITPLTFGAGTKVEIK
modifications: conjugated to SN-38 (antibody drug conjugate) and labelled with Alexa Fluor 488; sites not stated
Consider B1, for which the binding result in assay [7] was “binds”.

B2: SG ADC labeled with Alexa-Fluo-488 (conjugate)
VH: B1 VH
VL: B1 VL
Regarding B2, in assay [8], the “immunofluorescent signal on cell membrane, TROP2-overexpressing cells” value was “strong immunofluorescent signal on cell membrane” and the “immunofluorescent signal on cell membrane, control cells” value is given as “negative signal”.

B3: sacituzumab govitecan (antibody, V domains shown)
VH: B1 VH
VL: B1 VL
modifications: conjugated to SN-38 (antibody drug conjugate); sites not stated
notes: also called SG; Trodelvy
Take B3: the binding result in assay [9] is recorded as “binds”.
